Measurements taken from patent publication US5550110A, “Endothelin Antagonists II” (Warner-Lambert Company, priority 1994, dated 1996).
Peptide text beside a SMILES is read from it.

What was measured:
[1] = target: T1, rat recombinant ETB receptor (CHO cells) (Rattus norvegicus, UniProt P21451); assay: Inhibition of ET-1 stimulated arachidonic acid release (AAR-B); format: cell-based; conditions: ET-1 0.3 nM
T1 construct: expressed in transfected cells; host or cells: CHO cells
T1 sequence (P21451 27-442): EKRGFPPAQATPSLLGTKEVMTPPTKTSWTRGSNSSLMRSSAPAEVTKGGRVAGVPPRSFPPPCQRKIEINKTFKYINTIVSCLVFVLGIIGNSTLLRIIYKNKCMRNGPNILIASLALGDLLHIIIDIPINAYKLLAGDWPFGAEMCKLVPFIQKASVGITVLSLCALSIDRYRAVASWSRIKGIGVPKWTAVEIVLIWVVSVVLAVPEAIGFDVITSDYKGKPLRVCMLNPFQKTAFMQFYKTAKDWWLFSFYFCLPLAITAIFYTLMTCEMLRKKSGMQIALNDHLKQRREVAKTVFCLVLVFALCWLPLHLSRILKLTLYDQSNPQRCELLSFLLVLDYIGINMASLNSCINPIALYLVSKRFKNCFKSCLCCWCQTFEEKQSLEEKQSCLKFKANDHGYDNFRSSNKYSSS
Description: In Vitro Inhibition of ET-1 Stimulated Arachidonic Acid Release in Cultured Rabbit Vascular Smooth Muscle Cells (AAR-A) or CHO Cells Expressing Rat Recombinant ETB Receptor (AAR-B) by Compounds of Formula I
Antagonist activity is measured by the ability of added compounds to reduce endothelin-stimulated arachidonic acid release in cultured vascular smooth muscle cells as arachidonic acid release (AAR). [^3 H] Arachidonic Acid Loading Media (LM) is DME/F12+0.5% fetal calf serum (FCS)×0.25 mCi/mL [^3 H] arachidonic acid (Amersham). Confluent monolayers of cultured rabbit renal artery vascular smooth muscle cells (AAR-A) or CHO cells expressing rat recombinant ETB receptor (AAR-B) were incubated in 0.5 mL of the LM over 18 hours, at 37° C., in 5% CO2. The LM was aspirated and the cells were washed once with the assay buffer (Hank's balanced salt solution [BSS]+10 mM HEPES+fatty acid-free BSA (1 mg/mL)), and incubated for 5 minutes with 1 mL of the prewarmed assay buffer. This solution was aspirated, followed by an additional 1 mL of prewarmed assay buffer, and further incubated for another 5 minutes. A final 5-minute incubation was carried out in a similar manner. The same procedure was repeated with the inclusion of 10 μL of the test compound (1 nM to 1 μM) and 10 μL ET-1 (0.3 nM) and the incubation was extended for 30 minutes. This solution was then collected, […] of scintillation cocktail was added, and the amount of [^3 H] arachidonic acid was determined in a liquid scintillation counter.

[2] = tested on: endothelin receptor (ETA), rabbit renal artery vascular smooth muscle cells; assay: Endothelin Receptor Binding Assay-A (ERBA-A), intact cell binding of [125I]-ET-1; conditions: [125I]-ET-1 25 pM
Description: The compounds of Formula I are valuable antagonists of endothelin. […] Thus, the compounds of Formula I were tested for their ability to inhibit [^125 I]-ET-1([^125 I]-Endothelin-1) binding in a receptor assay according to the following procedures: Endothelin Receptor Binding Assay-A (ERBA-A) Intact Cell Binding of [^125 I]-ET-1 The cells used were rabbit renal artery vascular smooth muscle cells grown in a 48-well dish (1 cm^2) (confluent cells). The assay buffer was a medium 199 containing Hanks salts and 25 mM Hepes buffer (Gibco 380-2350AJ), supplemented with penicillin/streptomycin/fungizone (0.5%) and bovine serum albumin (1 mg/mL). Amersham radioiodinated endothelin-1 [^125 I]-ET-1 was used at final concentration of 20,000 cpm/0.25 mL (25 pM). […] Second, remove the assay buffers, place the dish on ice, and add 150 μL of cold assay buffer described above to each well. Third, add […] each of cold [^125 I]-ET-1 and competing ligand to the solution (at the same time if possible). Next, place dish in a 37° C. water bath for about 2 hours and gently agitate the dish every 15 minutes. Discard the radioactive incubation mixture in the sink and wash wells 3 times with 1 mL of cold phosphate buffered saline. Last, add […] of 0.25 molar sodium hydroxide, agitate for 1 hour on a rotator, and then transfer the sodium hydroxide extract to gamma counting tubes and count the radioactivity.

| SMILES | IC50 [1] [nM] | IC50 [2] [nM] |
| --- | --- | --- |
| CC[C@H](C)[C@H](NC(=O)[C@H](CC(=O)O)NC(=O)[C@H](CC(C)C)NC(=O)[C@H](NC(C)=O)C1c2ccccc2CCc2ccccc21)C(=O)N[C@H](C(=O)N[C@@H](Cc1c[nH]c2ccccc12)C(=O)O)[C@@H](C)CC [Example 1, Ac-D-Bhg-Leu-Asp-Ile-Ile-Trp] (HELM PEPTIDE1{[ac].[O=C([C@H](N[*:1])C1c2ccccc2CCc2ccccc21)[*:2]].L.D.I.I.W}$$$$V2.0) | 20 |  |
| CC[C@H](C)[C@H](NC(=O)[C@H](CC(=O)O)NC(=O)[C@H](CC(C)C)NC(=O)[C@H](NC(C)=O)C1c2ccccc2CCc2ccccc21)C(=O)N(C)[C@H](C(=O)N[C@@H](Cc1c[nH]c2ccccc12)C(=O)O)[C@@H](C)CC [Example 19, Ac-D-Bhg-Leu-Asp-Ile-N-MeIle-Trp] (HELM PEPTIDE1{[ac].[O=C([C@H](N[*:1])C1c2ccccc2CCc2ccccc21)[*:2]].L.D.I.[meI].W}$$$$V2.0) |  | 0.5 |
